# Source: US8778886B2, “Methods of making and using a cell penetrating peptide for enhanced delivery of nucleic acids, proteins, drugs, and adenovirus to tissues and cells, and compositions and kits” (Tufts University, priority 2007, dated 2014)
# Key:
# [1] = test system: HER cells; assay: C-POD delivery of siRNA, silencing of GFP expression; type: cell-based, human; conditions: pEGFP delivered by C-POD, no siRNA
# Method: pCAGRFP was compacted with C-POD at a ratio of 400 peptide/plasmid molecules. Briefly, 2 μg of DNA and the appropriate concentration of peptide were each suspended in 15 μL of either 100 μM sodium phosphate or 5% dextrose buffer. The peptide and DNA solutions were mixed and incubated for 30 minutes at room temperature prior to addition to HER cells. After 48 hours, cells were resuspended in PBS for FACS analysis. For electron microscopy, peptide/DNA complexes were prepared as above. Particles were bound to glow-discharged copper grids, stained with urinyl acetate, and visualized on a CMIO Transmission Electron Microscope (Philips) using Digital Micrograph software (Gatan, Inc). C-POD was used to compact both pd2-EGFP-NI and GFP Duplex I at concentrations of 450 particles/DNA molecule and 25 particles/duplex molecule, respectively, in 100 mM sodium phosphate buffer using the same procedures described above. Compacted pd2-EGFP-NI DNA, 2 μg, and 70 pmoles of GFP Duplex I diluted in DMEM+2% FBS were added simultaneously to HER cells for 4 hours. Growing medium was then added to cells and the incubation continued for 44 additional hours. […] The amount of fluorescence resulting from the Qdot-peptide complex was determined using a fluorometer and an equivalent amount of unbound Strep-Qdot was added separately as control. […] Uptake of Qdots was determined by fluorescent microscopy as described above. […]
# [2] = test system: E. coli; assay: Microbicidal activity, colony count after plating; type: cell-based; conditions: 2 hours at 37° C., plating on LB agar
# Method: Lissamine conjugated POD (L-POD) and either heparan sulfate or chondroitan sulfate were incubated together at each of molar ratios of 1:3.33, 1:6.67, and 1:8 in water for 30 minutes at room temperature. The complex was diluted in DMEM+2% FBS and added to 0.2×]06 HER cells for 5 minutes at 37° C. Following incubation, cells were trypsinized and suspended in PBS for FACS analysis as described above. To measure microbicidal activity of C-POD, XL-1 Blue cells (Stratagene, La Jolla, Calif.) were grown to mid logarithmic phase (OD600=0.600) and washed twice in a solution of 10 mM Tris, pH 7.4 and 5 mM Glucose. The cells were resuspended in 10 mL of the same solution and […] of the suspension was incubated with C-POD in a final volume of 50 μL. The peptide/bacteria cell solution was rocked for 2 hours at 37° C. The peptide-treated bacteria was diluted 1:4500 with LB broth, plated on agar, and grown overnight at 37° C. The following day, the bacterial colonies on each plate were counted to quantify peptide-related reduction in growth.
# Since endophthalmitis, an infection within the eye, is regularly a complicating factor in drug delivery to ocular tissues [Ho J et al. 2007 Int Opthalmol Clin 47: 199-208], C-POD was examined for potential microbicidal activities. E. coli cells grown to mid-log phase were incubated with either H20 only or C-POD suspended in H20 at concentrations ranging from 0.03 μM to 60 μM, and cell number was determined by plating samples on LB agar. […] Greater concentrations of C-POD completely eliminated bacterial growth.
# [3] = test system: human lung carcinoma epithelial cells (A549); assay: POD-GFP protein transduction in vitro, GFP-positive cells by FACS; type: cell-based; conditions: A549, 10 μg protein, 2 hours
# Method: To evaluate cellular penetration of POD fusion proteins, HER cells were seeded on Lab Tek-II chamber slides and incubated with 10 μg of POD-GFP or GFP for two hours. Following fixation, cells were visualized by light and fluorescence microscopy using an Olympus BX51 microscope with differential interference contrast (DIC) and the appropriate fluorescence filters. Images were captured using a Retiga 2000R FAST camera and QCapture Pro 5.0 (QImaging, British Columbia, Canada). To quantitate protein uptake, 0.2×10^6 of either HER or A549 cells were incubated with 10 μg POD-GFP or GFP for 2 hours. Cells were washed with PBS, pelleted and resuspended in PBS for FACS analysis. Cell membrane integrity was evaluated by measuring the percentage of Propidium Iodide (1 μM) positive cells in the presence of fusion protein. FACS analysis of protein uptake and toxicity was performed using a FACSCAlibur (Becton Dickinson, Franklin. Lakes, N.J.) and results analyzed using CellQuest Pro (Becton Dickinson). 10,000 events were counted for each analysis, which was performed in triplicate and repeated at least once. […]
# [4] = test system: HER cells; assay: POD-GFP protein transduction in vitro, GFP-positive cells by FACS and localization; type: cell-based, human; conditions: for GFP-positive cells: HER, 10 μg protein, 2 hours
# Method: (§1) To evaluate cellular penetration of POD fusion proteins, HER cells were seeded on Lab Tek-II chamber slides and incubated with 10 μg of POD-GFP or GFP for two hours. Following fixation, cells were visualized by light and fluorescence microscopy using an Olympus BX51 microscope with differential interference contrast (DIC) and the appropriate fluorescence filters. Images were captured using a Retiga 2000R FAST camera and QCapture Pro 5.0 (QImaging, British Columbia, Canada). To quantitate protein uptake, 0.2×10^6 of either HER or A549 cells were incubated with 10 μg POD-GFP or GFP for 2 hours. Cells were washed with PBS, pelleted and resuspended in PBS for FACS analysis. Cell membrane integrity was evaluated by measuring the percentage of Propidium Iodide (1 μM) positive cells in the presence of fusion protein. FACS analysis of protein uptake and toxicity was performed using a FACSCAlibur (Becton Dickinson, Franklin. Lakes, N.J.) and results analyzed using CellQuest Pro (Becton Dickinson). 10,000 events were counted for each analysis, which was performed in triplicate and repeated at least once.
# HER and A549 cells were treated as above for subsequent addition of LysoTracker, ER Tracker (Molecular Probes, Carlsbad, Calif.), or DAPI, and were incubated for one hour. These reagents were removed and cells were fixed with formalin for imaging.
# To determine the transduction capabilities of POD-GFP in vitro, each of approximately 0.2×10^6 human lung carcinoma epithelial cells (A549) or HER cells were incubated with 10 μg of each of purified recombinant POD-GFP or control GFP protein for 2 hours and the number of GFP-positive cells were counted by FACS. […] Similarly, 34.2±3.4% and 1.8±0.4%, respectively, of HER cells were GFP-positive when incubated with POD-GFP or GFP, respectively (FIG. 9 panel A).
# In contrast to endogenous gene expression, POD-GFP in the Example herein appeared in the cytoplasm of HER cells in a punctate pattern (FIG. 9 panel B), similar to observations in examples above with L-POD peptide and similar to that of an endocytic mechanism of uptake.
# [5] = test system: HER cells; assay: Toxicity during protein transduction, propidium iodide uptake; type: cell-based, human; conditions: HER cells incubated with protein
# Method: as §1
# Extent of toxicity to cells during protein transduction was measured by uptake of propidium iodide (PI).
# [6] = test system: human embryonic retinoblast (HER) cells; assay: Localization of de novo synthesized POD-GFP after plasmid transfection; type: cell-based; conditions: transfection with pPODGFPHis or pGFPHis
# Method: Human embryonic retinoblast (HER) cells were cultured using previously described methods [Fallaux F J et al. 1996 Hum. Gene Ther. 7: 215-222]. Carcinoma human alveolar basal epithelial cells (A549, American Type Culture Collection, Manassas, Va.) were grown to 70-80% confluence in DMEM media supplemented with 10% fetal bovine serum (FBS). All cell culture procedures were performed in DMEM supplemented with 2% FBS. Transfection of plasmids was carried out using 2:1 μL Lipofectamine: μg plasmid in Opti-MEM media. Forty-eight hours post-transfection, the cells were fixed and stained with DAPI, 4′,6-diamidino-2-phenylindole.
# Transfection of human embryonic retinoblast (HER) cells [Fallaux F J et al. 1996 Hum. […] Furthermore, POD-GFP appeared to concentrate in sub nuclear compartments (FIG. 7 panel B, arrowheads).
# [7] = test system: retina; assay: Subretinal / intravitreal injection of POD-GFP protein in vivo; set-up: species or system C57BL/6J mice
# Method: (§2) Subretinal and intravitreal injections of the fusion proteins were performed using techniques described in Cashman et al. [2006 Invest Opthalmol Vis Sci 47:3496-3504]. Briefly, 8.5 μg of POD-GFP or 6.6 μg of GFP protein was injected into the subretinal or intravitreal space respectively, of 6-8 week old C57BL/6J mice. Four independent injections were performed and yielded nearly identical results. Six hours post-injection, mice were sacrificed by CO2 inhalation and cervical dislocation. For topical delivery of the POD-GFPHis or GFP-His, C57BL/6J mice were anesthetized with xylazine/ketamine and 2 μl containing 40 μg of protein were dropped onto the […] surface. Forty-five minutes following administration, mice were sacrificed as above and eyes enucleated, washed twice in PBS, and fixed overnight in 4% paraformaldehyde. Eyes were embedded in Optimal Cutting Temperature Compound (Sakura Finetek, Torrance, Calif.) and 14 μm sections were collected using a Microm 550 cryostat.
# To determine the transduction properties of POD-GFP […] an amount of 8.5 μg of each of purified POD-GFP or control GFP protein was injected into the subretinal space, i.e., between the retinal pigment epithelium (RPE) and photoreceptors, of 6 week-old male C57BL61J mice. Eyes were harvested after 6 hours and frozen sections were examined by fluorescence microscopy.
# Purified POD-GFP, 6.6 μg, or that amount of control GFP protein was injected into the intravitreal space, i.e. between the lens and neural retina of 6 week-old male C57BL6/J mice, and eyes were harvested after 6 hours and frozen sections examined by fluorescence microscopy. […] Unlike with subretinal injection, no POD-GFP signal was detectable in the outer nuclear layer or RPE beyond that of background auto-fluorescence and the overall number of GFP-positive cells was less than that achieved by subretinal injection.
# [8] = test system: cornea; assay: Topical application of POD-GFP to cornea in vivo; set-up: species or system C57BL6/J mouse; conditions: 40 μg, 45 minutes
# Method: as §2, with “Eyes were embedded in Optimal Cutting Temperature Compound (Sakura Finetek, Torrance, Calif.) and 14 μm sections were collected using a Microm 550 cryostat.” left out
# To further examine localization of POD-GFP, anterior ocular tissues were dissected and the corneas were flat mounted or cross-sectioned and re-examined by fluorescence microscopy. […] In contrast, GFP-fluorescence was readily detected on both flat mounts and cross sections of corneas from mice that received topical application of POD-GFP (FIG. 12 panel B). […] No GFP-signal was detected in corneal cross-sections prepared from mice that received topical application of control GFP.
# [9] = test system: skin; assay: Topical application of POD-GFP to shaved skin in vivo; set-up: species or system C57BL6/J mice; conditions: 40 μg; for GFP-fluorescence in skin: 24 hours
# Method: Adult mice were anesthetized as described above and the abdomen shaved to reveal a 2.25 cm^2 area of skin. A dose of 40 μg of protein was applied to the skin for 24 hours. Upon completion of the treatment, animals were sacrificed and the treated skin dissected and fixed overnight in 4% paraformaldehyde and transverse sections were obtained as described herein.
# To extend these observations to other organ systems, the potential of transdermal delivery of POD-fusion protein was examined. POD-GFP (40 μg) or control OFF was topically applied to shaved skin of adult C57BL6/J mice. Animals were sacrificed 24 hours later and frozen sections of the treated region were examined by fluorescence microscopy.
Substance,GFP-positive cells [1],concentration giving almost complete inhibition of bacterial growth [2],concentration giving significant inhibition of bacterial growth [2],GFP-positive cells [3],GFP-positive cells [4],PI-positive cells [5],localization of expressed protein [6],"detection in retina by fluorescence microscopy ([7]; intravitreal, 6.6 μg, 6 hours)","detection in retina by fluorescence microscopy ([7]; subretinal, 8.5 μg, 6 hours)",presence on outer surface of the eye [8],GFP-fluorescence in skin [9],cellular localization of exogenously added protein ([4]; HER cells),binding to lens capsule ([7]; intravitreal injection),"transduction of the ONL, share of the retinal surface ([7]; subretinal, 8.5 μg, 6 hours)",duration of binding to mouse skin [9]
CGGG(ARKKAAKA)4 (CGGGARKKAAKAARKKAAKAARKKAAKAARKKAAKA; The peptide was designed and synthesized) [C-POD],49.13±2.23%,24.0 µM,0.30 µM,,,,,,,,,,,,
GFP: His-tagged GFP control protein [reference compound],,,,1.4±0.4%,1.8±0.4%,3.2±2.7%,relatively diffuse cytoplasmic and nuclear localization,not detected in retinal cells above background auto-fluorescence,barely discernible above background auto-fluorescence,washed away,Only minimal GFP-fluorescence,,,,
POD-GFP: His-tagged POD-GFP fusion protein,,,,35.3±0.9%,34.2±3.4%,2.8±3.8%,relatively weak cytoplasmic and intense nuclear localization,readily detected in ganglion cells,abundantly present in the outer nuclear layer,detected on most of the ocular surface,significantly GFP-positive,colocalize in part with Lysotracker,very strong affinity,up to 40%,at least 24 hours
